Test results from US20090156825A1, “Fluorescent compounds that bind to histone deacetylase” (priority 2007, published 2009).
Entries after “also recorded” stand apart in the source; their conditions may differ.

Target: T1, HDAC1 (Homo sapiens, UniProt Q13547)
T1 construct: Flag
Experiment: Fluorescence polarization Kd determination of FITC-labeled compounds by HDAC1 titration
Assay type: binding
Conditions: for time for binding to come to equilibrium: FP read over time after adding the FITC-labeled compound to HDAC1; for binding mechanism (exponential fit of Kd app versus time): replot of Kd app values vs. time, 1-phase or 2-phase exponential fit
Protocol: Titrations of HDAC1 were set up in 96-well black, flat-bottom plates. The concentrations of HDAC1 varied from 5 to 200 nM (with COMPOUND 1 and COMPOUND 2) or 20 to 450 nM (with COMPOUND 3). At time zero, the FITC-labeled compound was added and the plate inserted into the Analyst HT for FP detection. The samples were read every 5 seconds through ˜10 minutes (COMPOUND 1) or 2 hours (COMPOUND 2 and COMPOUND 3). The data at each time point was converted from mP to […] and plotted in Prism using an equation for ligand binding taking ligand-depletion into consideration (Equations 1-3) (An example of which is given in FIG. 1A).
where Lt is total fluorescently-labeled compound concentration, Rt is total HDAC concentration, Kd is the dissociation constant for the ligand to HDAC, Ab is the anisotropy when 100% of the ligand is bound, and Af is the anisotropy when 100% of the ligand is free. The values determined by the data as plotted in Figure A are Kd^app, Ab, and Af.
After determining the Kd^app for each time point, the Kd^app was replotted versus time (FIG. 1B) to determine true steady-state Kd. […] The plateau value of this exponential decay defines the steady-state Kd value.

T1 sequence (Q13547 whole entry): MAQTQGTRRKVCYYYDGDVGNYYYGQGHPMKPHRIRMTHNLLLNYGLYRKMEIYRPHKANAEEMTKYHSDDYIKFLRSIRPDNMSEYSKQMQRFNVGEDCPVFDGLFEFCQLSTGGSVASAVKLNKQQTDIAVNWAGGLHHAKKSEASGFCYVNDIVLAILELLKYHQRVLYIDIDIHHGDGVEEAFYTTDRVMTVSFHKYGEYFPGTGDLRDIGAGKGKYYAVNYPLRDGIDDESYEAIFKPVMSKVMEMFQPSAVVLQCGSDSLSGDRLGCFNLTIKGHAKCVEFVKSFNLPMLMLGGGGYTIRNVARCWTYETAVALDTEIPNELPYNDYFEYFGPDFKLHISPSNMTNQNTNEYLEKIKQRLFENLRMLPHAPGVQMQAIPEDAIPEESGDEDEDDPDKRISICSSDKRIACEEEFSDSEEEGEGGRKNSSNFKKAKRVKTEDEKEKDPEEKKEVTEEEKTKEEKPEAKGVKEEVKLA

| Structure (SMILES) | time for binding to come to equilibrium | Kd (plateau of Kd app replotted versus time, HDAC1 5 to 200 nM, FP detection, read-out: true steady-state Kd) [nM] | binding mechanism (exponential fit of Kd app versus time) | binding mechanism (exponential fit of Kd app versus time) (listed as FITC-SAHA) |
| --- | --- | --- | --- | --- |
| O=C(CCCCCCC(=O)Nc1ccc(CNC(=S)Nc2ccc(-c3c4ccc(=O)cc-4oc4cc(O)ccc34)c(C(=O)O)c2)cc1)NO [COMPOUND 1, 5-({[(4-{[8-(hydroxyamino)-8-oxooctanoyl]amino}benzyl)amino]carbonothioyl}amino)-2-(6-hydroxy-3-oxo-3H-xanthen-9-yl)benzoic acid] | faster than could be measured by the instrument used | 16 | classical 1-step binding mechanism | fits 1-phase exponential curve quite well |
| Nc1ccc(-c2ccccc2)cc1NC(=O)c1ccc(CNC(=O)OCc2ccc(CNC(=S)Nc3ccc(-c4c5ccc(=O)cc-5oc5cc(O)ccc45)c(C(=O)O)c3)cc2)cc1 [COMPOUND 2, 5-{[({4-[({[(4-{[(4-aminobiphenyl-3-yl)amino]carbonyl}benzyl)amino]carbonyl}oxy)methyl]benzyl}amino)carbonothioyl]amino}-2-(6-hydroxy-3-oxo-3H-xanthen-9-yl)benzoic acid] | 210 min | – | requires a 2-phase exponential curve; also recorded: bound slowly with an induced-fit mechanism | – |
